Data: PubChem BioAssay (NCI)
Several values for one entry are separate records, joined by “and”; a condition that tells them apart may be missing. Equal values may be shown once.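 Where inhibition never reached the appropriate level, the endpoint shown equals the highest concentration tested. Otherwise, values were interpolated linearly from a five-concentration, 48-hour dose response in 96-well plates. The concentration for 50% growth inhibition is given as GI50. The concentration for full growth arrest is given as TGI.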

How the values were obtained:
Assay in all cases: inhibition of tumour cell growth, NCI panel, 48 h
RXF 393 renal = tested on: RXF 393 renal
MDA-MB-435 = tested on: MDA-MB-435
SK-MEL-28 melanoma = tested on: SK-MEL-28 melanoma
NCI-H460 lung = tested on: NCI-H460 lung
ACHN renal = tested on: ACHN renal
UACC-62 melanoma = tested on: UACC-62 melanoma
EKVX NSCLC = tested on: EKVX NSCLC
A498 renal = tested on: A498 renal
SK-MEL-5 melanoma = tested on: SK-MEL-5 melanoma
M14 melanoma = tested on: M14 melanoma

Row | Compound | GI50 (RXF 393 renal) | TGI (RXF 393 renal) | GI50 (MDA-MB-435) | TGI (MDA-MB-435) [µM] | GI50 (SK-MEL-28 melanoma) | TGI (SK-MEL-28 melanoma) [µM] | GI50 (NCI-H460 lung) [µM] | TGI (NCI-H460 lung) [µM] | GI50 (ACHN renal) | TGI (ACHN renal) | GI50 (UACC-62 melanoma) | TGI (UACC-62 melanoma) [µM] | GI50 (EKVX NSCLC) | TGI (EKVX NSCLC) [µM] | GI50 (A498 renal) | TGI (A498 renal) | GI50 (SK-MEL-5 melanoma) | TGI (SK-MEL-5 melanoma) | GI50 (M14 melanoma) | TGI (M14 melanoma) [µM]
1 | CN(C)CCn1cc(-c2ccc3c(Nc4ccc(CC(=O)Nc5cccc(F)c5)cc4)ncnc3c2)cn1 | 1.35 µM | 2.84 µM | 2.86 µM | > 10 | 1.61 µM | 3.02 | 0.087 | 2.49 | 4.24 µM | > 10 µM | 6.4 µM | > 10 | 5.89 µM | > 10 | > 10 µM | > 10 µM | > 10 µM | > 10 µM | 1.49 µM | 3.26
2 | CCOC1NC(=O)Oc2ccccc21 (stereo unspecified) |  | > 100 µM |  | > 100 |  | > 100 |  | > 100 |  | > 100 µM |  | > 100 |  | > 100 |  | > 100 µM |  | > 100 µM |  | > 100
3 | COc1ccc(-n2c(N)c(C(=O)NCCN3CCOCC3)c3nc4ccccc4nc32)cc1OC | 34.1 µM | > 100 µM | 12.8 µM | > 100 | 32.1 µM | > 100 | 3.28 | > 100 | 4.16 µM | > 100 µM | 9.82 µM | > 100 | 40.2 µM | > 100 | 7.98 µM | > 100 µM | 3.22 µM | > 100 µM | 15.1 µM | > 100
4 | O=C1/C(=C/c2ccc(O)cc2)CCC1CNc1ccc(Cl)cc1 (stereo unspecified) |  | 15.6 µM |  | 17.3 |  | 24.2 |  | 23 |  | 11.6 µM |  | 5.86 |  | 21.5 |  | 28.4 µM |  | 20.8 µM |  | 3.57
5 | Cc1ccc(/C=C(\C#N)n2nnc3cc(F)c(F)cc32)cc1 | 3.28 µM | 13.5 µM | 0.36 µM | 17.2 | 6.79 µM | > 100 | 3.52 | 11.3 | 4.2 µM | 34.7 µM | 3.71 µM | 17.5 | 3.86 µM | 41.2 | 2.51 µM | 7.84 µM | 3.65 µM | 14.2 µM | 2.07 µM | 14.9
6 | CNCCNc1nc2ccccc2c2c(=O)c3cccc(OC)c3sc12 | 1.38 µM | 2.75 µM | 1.67 µM | 3.09 | 1.94 µM | 3.62 | 1.23 | 2.72 | 1.01 µM | 2.3 µM | 1.57 µM | 2.97 | 1.56 µM | 3.05 | 1.41 µM | 2.97 µM | 1.65 µM | 3.04 µM | 1.59 µM | 3.01
7 | C[n+]1c2ccccc2c(NC2CCNCC2)c2[nH]c3ccccc3c21 |  | 0.46 µM | 2.33 µM | 8.42 | 1.03 µM | 2.95 | 0.223 | 1.53 | 4.68 µM | 32.1 µM | 0.215 µM | 1.08 | 0.391 µM | 5.39 | 1.35 µM | 5.05 µM | 0.488 µM | 2.32 µM | 2.41 µM | 13.4
8 | Cn1c(=O)c(F)c(Nc2ccc(I)cc2F)c2c(=O)n(C[C@@H](O)CO)cnc21 | 0.16 µM and 0.162 µM | 4 µM and > 2.93 µM | < 0.01 µM and 0.00642 µM | 41.1 | < 0.01 µM and 0.00301 µM |  |  | > 100 | 2.17 µM and 0.48 µM | 40.8 µM and > 6.49 µM | < 0.01 µM and 0.00264 µM |  | 0.042 µM and 0.0485 µM | > 64.1 | < 0.01 µM and 0.0103 µM | 0.0305 µM and 0.0752 µM | < 0.0268 µM and 0.0448 µM | 17.9 µM and > 3.46 µM | < 0.01 µM and 0.00175 µM | 0.0211
